From ChEMBL document CHEMBL4507319 (2021)

Tests used:
[1] = GPCRScan assay: inhibition of GABA/PBR; set-up: species or system Rattus norvegicus; radioligand conc. used [nm] 0.3 – 2.0, parental cells brain tissue
[2] = target: Receptor tyrosine-protein kinase erbB-4 (Homo sapiens) (UniProt Q15303); assay: ErbB4(h) Eurofins kinase panel; conditions: Compound concentration 1.0 uM
[3] = target: Fibroblast growth factor receptor 1 (Homo sapiens) (UniProt P11362); assay: FGFR1(h) Eurofins kinase panel; conditions: Compound concentration 1.0 uM
Sequence of Fibroblast growth factor receptor 1 (Homo sapiens) (P11362 22-822 limits assumed): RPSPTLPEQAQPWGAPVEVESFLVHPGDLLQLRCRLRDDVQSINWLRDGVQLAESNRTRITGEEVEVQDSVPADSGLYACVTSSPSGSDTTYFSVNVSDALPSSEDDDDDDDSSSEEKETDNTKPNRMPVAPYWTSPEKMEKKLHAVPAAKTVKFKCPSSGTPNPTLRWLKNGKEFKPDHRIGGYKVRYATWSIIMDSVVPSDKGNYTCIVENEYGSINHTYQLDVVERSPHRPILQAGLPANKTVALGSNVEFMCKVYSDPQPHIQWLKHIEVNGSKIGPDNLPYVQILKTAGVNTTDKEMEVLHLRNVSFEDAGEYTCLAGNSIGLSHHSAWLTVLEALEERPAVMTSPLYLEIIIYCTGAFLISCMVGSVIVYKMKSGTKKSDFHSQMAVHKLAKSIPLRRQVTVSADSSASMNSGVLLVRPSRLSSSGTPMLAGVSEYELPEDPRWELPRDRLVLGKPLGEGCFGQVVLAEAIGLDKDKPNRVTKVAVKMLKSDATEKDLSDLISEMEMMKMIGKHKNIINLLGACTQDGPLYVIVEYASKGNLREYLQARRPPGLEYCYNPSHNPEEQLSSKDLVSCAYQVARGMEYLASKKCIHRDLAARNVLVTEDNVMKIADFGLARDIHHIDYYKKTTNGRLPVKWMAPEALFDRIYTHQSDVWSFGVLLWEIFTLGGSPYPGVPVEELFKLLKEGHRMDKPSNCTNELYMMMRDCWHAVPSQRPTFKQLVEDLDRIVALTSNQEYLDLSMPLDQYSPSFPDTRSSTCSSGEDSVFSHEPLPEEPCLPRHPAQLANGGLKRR

[4] = target: CDK4/Cyclin D3 (Homo sapiens) (UniProt P11802+P30281); assay: CDK4/cyclinD3(h) Eurofins kinase panel; format: protein-complex assay; conditions: Compound concentration 1.0 uM
BXPC-3 = assay: BxPC3 cell line Proliferation assay; format: functional, Homo sapiens; conditions: time 3 day
[5] = target: Homeodomain-interacting protein kinase 3 (Homo sapiens) (UniProt Q9H422); assay: HIPK3(h) Eurofins kinase panel; conditions: Compound concentration 1.0 uM
Sequence of Homeodomain-interacting protein kinase 3 (Homo sapiens) (Q9H422 whole entry, looked up): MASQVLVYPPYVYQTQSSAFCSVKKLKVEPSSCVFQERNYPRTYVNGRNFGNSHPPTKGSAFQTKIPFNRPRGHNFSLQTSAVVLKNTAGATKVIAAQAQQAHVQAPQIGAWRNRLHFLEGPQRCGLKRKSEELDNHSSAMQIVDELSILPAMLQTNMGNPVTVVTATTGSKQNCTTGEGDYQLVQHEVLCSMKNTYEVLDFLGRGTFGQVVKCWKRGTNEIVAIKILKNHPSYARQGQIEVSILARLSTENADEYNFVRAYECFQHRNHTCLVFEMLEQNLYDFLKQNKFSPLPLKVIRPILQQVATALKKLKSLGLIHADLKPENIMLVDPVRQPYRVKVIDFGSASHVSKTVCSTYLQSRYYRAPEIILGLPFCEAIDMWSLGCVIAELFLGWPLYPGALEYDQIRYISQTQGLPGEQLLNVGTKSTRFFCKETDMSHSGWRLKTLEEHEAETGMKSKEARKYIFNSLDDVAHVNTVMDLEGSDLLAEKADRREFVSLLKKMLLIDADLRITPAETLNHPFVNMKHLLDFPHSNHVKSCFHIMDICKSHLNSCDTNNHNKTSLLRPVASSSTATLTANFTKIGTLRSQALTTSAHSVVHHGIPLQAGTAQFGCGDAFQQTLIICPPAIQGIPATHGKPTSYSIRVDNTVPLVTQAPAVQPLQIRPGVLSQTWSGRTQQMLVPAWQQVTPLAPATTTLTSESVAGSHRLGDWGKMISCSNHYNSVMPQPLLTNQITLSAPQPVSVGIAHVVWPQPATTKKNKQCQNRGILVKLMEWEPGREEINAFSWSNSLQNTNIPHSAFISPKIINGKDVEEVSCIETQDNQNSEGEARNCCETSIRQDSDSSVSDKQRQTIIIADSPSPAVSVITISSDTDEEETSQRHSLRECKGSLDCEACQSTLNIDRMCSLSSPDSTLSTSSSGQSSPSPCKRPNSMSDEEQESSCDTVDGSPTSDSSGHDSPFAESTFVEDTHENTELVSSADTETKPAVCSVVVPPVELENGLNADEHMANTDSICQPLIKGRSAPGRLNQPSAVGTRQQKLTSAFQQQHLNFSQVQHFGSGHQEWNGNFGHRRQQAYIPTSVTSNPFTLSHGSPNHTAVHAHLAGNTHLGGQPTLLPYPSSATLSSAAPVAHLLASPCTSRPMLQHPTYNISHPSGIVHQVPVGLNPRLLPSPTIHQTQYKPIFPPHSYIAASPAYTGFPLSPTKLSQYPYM

[6] = target: Non-receptor tyrosine-protein kinase TYK2 (Homo sapiens) (UniProt P29597); assay: TYK2(h) Eurofins kinase panel; conditions: Compound concentration 1.0 uM
[7] = target: Dual specificity protein kinase CLK1 (Homo sapiens) (UniProt P49759); assay: CLK1(h) Eurofins kinase panel; conditions: Compound concentration 1.0 uM
Sequence of Dual specificity protein kinase CLK1 (Homo sapiens) (P49759 whole entry, looked up, the tested form may be a part): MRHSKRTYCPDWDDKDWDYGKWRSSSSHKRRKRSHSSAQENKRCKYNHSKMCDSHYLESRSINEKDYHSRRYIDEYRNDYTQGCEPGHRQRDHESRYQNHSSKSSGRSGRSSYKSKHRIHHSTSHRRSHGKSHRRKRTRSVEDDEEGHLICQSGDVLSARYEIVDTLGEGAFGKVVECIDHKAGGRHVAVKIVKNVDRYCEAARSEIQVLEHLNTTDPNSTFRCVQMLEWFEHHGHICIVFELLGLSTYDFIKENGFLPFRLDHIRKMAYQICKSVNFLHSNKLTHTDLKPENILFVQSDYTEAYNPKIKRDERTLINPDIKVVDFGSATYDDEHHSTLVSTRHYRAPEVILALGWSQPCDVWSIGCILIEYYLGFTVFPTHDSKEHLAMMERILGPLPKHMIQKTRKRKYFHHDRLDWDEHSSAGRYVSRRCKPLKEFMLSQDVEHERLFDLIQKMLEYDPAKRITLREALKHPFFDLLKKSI

[8] = target: Epithelial discoidin domain-containing receptor 1 (Homo sapiens) (UniProt Q08345); assay: DDR1(h) Eurofins kinase panel; conditions: Compound concentration 1.0 uM
[9] = target: Serine/threonine-protein kinase PAK 5 (Homo sapiens) (UniProt Q9P286); assay: PAK5(h) Eurofins kinase panel; conditions: Compound concentration 1.0 uM
Sequence of Serine/threonine-protein kinase PAK 5 (Homo sapiens) (Q9P286 whole entry, looked up): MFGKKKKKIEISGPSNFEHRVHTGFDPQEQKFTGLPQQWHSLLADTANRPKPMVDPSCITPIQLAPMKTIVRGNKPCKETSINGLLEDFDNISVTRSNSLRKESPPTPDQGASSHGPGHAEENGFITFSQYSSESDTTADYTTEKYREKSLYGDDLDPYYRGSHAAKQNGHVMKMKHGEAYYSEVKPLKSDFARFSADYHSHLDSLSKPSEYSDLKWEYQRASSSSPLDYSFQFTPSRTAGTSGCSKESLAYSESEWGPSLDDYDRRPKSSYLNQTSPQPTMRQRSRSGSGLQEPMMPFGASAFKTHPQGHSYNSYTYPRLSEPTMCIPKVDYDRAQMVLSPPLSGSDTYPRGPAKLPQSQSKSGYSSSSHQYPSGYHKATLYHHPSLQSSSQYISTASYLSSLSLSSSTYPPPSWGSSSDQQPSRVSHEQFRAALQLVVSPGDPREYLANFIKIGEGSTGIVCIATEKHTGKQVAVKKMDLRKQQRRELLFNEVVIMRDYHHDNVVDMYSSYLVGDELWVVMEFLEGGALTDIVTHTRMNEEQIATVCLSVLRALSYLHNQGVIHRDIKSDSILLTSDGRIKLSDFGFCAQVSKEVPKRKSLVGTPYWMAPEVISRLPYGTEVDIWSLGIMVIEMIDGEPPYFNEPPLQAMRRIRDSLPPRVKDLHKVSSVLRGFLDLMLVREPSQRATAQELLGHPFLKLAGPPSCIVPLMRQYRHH

[10] = target: Leucine-rich repeat serine/threonine-protein kinase 2 (Homo sapiens) (UniProt Q5S007); assay: LRRK2(h) Eurofins kinase panel; conditions: Compound concentration 1.0 uM
Homo sapiens = species on record: Homo sapiens; assay: CK2(h) Eurofins kinase panel; conditions: Compound concentration 1.0 uM
[11] = target: Angiopoietin-1 receptor (Homo sapiens) (UniProt Q02763); assay: Tie2 (h) Eurofins kinase panel; conditions: Compound concentration 1.0 uM
Sequence of Angiopoietin-1 receptor (Homo sapiens) (Q02763 whole entry): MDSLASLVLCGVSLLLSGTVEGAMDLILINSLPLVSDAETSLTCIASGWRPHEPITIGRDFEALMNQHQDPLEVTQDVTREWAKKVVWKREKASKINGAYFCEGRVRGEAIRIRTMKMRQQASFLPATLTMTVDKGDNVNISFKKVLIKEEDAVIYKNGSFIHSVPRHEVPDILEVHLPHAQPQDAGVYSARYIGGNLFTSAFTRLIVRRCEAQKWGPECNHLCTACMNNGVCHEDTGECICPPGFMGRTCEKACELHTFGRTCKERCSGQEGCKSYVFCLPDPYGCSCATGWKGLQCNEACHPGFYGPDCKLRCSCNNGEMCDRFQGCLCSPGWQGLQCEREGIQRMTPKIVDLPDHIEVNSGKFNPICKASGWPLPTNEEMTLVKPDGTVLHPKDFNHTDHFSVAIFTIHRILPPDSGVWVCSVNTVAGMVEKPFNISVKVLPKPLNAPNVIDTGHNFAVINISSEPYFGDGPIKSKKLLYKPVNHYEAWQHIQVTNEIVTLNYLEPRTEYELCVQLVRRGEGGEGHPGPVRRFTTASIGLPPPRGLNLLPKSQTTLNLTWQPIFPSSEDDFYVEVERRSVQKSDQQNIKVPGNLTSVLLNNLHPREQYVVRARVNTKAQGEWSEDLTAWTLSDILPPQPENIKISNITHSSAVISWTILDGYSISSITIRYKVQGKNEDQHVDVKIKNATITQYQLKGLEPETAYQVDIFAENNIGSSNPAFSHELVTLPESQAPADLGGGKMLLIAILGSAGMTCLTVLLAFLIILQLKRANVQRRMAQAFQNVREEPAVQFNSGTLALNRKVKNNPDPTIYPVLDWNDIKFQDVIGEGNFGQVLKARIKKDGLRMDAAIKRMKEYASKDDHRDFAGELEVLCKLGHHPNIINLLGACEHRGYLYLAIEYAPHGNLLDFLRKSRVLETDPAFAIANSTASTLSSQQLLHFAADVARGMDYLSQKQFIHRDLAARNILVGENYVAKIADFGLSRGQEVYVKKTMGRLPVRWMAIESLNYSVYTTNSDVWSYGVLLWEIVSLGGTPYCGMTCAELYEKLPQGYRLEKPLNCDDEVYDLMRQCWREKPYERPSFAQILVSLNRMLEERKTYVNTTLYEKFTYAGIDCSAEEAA

[12] = target: RAC-alpha serine/threonine-protein kinase (Homo sapiens) (UniProt P31749); assay: PKBalpha (h) Eurofins kinase panel; conditions: Compound concentration 1.0 uM
Sequence of RAC-alpha serine/threonine-protein kinase (Homo sapiens) (P31749 whole entry): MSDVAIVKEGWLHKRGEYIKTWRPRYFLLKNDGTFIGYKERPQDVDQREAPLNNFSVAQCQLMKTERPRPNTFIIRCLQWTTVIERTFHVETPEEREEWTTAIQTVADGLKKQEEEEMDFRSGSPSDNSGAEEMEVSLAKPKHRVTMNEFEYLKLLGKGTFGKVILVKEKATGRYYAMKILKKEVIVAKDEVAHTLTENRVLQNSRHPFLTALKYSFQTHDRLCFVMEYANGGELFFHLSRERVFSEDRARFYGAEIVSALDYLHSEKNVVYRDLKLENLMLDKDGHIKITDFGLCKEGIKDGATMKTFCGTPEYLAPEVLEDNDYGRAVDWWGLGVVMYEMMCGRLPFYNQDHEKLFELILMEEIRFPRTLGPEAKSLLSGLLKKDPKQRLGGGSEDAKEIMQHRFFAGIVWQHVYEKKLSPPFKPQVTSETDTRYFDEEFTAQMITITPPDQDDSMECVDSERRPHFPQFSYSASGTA

[13] = target: T1, Ephrin type-A receptor 3 (Homo sapiens) (UniProt P29320); assay: EphA3(h) Eurofins kinase panel; conditions: Compound concentration 1.0 uM
T1 sequence (whole entry): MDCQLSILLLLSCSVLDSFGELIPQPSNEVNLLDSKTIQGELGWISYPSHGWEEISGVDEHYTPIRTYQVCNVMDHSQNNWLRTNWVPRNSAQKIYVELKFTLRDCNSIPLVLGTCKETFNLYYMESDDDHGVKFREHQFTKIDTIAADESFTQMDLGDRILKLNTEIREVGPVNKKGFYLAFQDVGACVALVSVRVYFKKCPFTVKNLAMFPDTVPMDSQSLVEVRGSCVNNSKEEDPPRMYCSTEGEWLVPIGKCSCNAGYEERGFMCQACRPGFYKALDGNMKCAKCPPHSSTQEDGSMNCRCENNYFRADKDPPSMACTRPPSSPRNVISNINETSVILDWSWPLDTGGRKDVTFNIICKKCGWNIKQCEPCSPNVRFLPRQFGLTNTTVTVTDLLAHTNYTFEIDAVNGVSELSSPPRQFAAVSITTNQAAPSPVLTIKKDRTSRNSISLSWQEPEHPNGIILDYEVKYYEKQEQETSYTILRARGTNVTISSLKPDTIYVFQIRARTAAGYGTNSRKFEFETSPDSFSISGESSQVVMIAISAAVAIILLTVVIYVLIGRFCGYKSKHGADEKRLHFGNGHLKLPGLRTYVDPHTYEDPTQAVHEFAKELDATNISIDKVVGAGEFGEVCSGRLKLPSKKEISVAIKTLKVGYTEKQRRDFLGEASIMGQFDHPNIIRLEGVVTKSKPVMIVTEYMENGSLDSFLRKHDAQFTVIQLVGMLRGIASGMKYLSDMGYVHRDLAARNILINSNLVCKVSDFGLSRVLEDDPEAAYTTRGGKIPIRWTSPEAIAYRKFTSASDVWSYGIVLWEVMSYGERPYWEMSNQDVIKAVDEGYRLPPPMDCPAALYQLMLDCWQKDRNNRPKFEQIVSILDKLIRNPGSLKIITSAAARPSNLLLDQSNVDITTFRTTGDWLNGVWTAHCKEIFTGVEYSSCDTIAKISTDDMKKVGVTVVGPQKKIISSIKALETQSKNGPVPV

[14] = target: T2, Mitogen-activated protein kinase kinase kinase kinase 3 (Homo sapiens) (UniProt Q8IVH8); assay: MAP4K3(h) Eurofins kinase panel; conditions: Compound concentration 1.0 uM
T2 sequence (whole entry): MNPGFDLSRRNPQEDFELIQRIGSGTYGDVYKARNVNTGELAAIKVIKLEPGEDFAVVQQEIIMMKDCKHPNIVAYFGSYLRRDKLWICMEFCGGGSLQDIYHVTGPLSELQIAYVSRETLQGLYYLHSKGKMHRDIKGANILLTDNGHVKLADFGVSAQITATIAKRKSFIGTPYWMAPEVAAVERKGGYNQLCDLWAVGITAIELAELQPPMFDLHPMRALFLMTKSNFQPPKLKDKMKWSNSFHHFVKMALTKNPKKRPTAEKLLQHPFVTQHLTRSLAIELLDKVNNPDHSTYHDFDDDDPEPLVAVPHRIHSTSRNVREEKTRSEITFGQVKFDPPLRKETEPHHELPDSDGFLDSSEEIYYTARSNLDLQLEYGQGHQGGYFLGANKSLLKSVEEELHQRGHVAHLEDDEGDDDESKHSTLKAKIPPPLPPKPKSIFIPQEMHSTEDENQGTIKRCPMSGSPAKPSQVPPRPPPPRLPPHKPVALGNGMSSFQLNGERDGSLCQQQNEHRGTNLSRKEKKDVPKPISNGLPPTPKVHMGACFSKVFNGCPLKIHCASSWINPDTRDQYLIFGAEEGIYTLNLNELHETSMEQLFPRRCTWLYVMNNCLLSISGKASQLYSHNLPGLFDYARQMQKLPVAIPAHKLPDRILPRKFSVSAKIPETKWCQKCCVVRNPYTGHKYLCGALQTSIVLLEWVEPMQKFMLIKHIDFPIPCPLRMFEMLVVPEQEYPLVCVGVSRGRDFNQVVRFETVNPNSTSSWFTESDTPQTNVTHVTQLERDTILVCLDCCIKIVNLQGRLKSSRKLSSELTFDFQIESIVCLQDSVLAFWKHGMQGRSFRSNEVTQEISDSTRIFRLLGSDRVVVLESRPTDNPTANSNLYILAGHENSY

[15] = target: Death-associated protein kinase 1 (Homo sapiens) (UniProt P53355); assay: DAPK1(h) Eurofins kinase panel; conditions: Compound concentration 1.0 uM
SK-N-FI = assay: SK-N-F1, control cell line Proliferation assay; format: functional, Homo sapiens; conditions: time 6 day

Compound | Ki [1] | pKi [1] | % residual kinase activity [2] | % residual kinase activity [3] | % residual kinase activity [4] | Cell Proliferation IC50 (BXPC-3) | % residual kinase activity [5] | % residual kinase activity [6] | % residual kinase activity [7] | % residual kinase activity [8] | % residual kinase activity [9] | % residual kinase activity [10] | % residual kinase activity (Homo sapiens) | % residual kinase activity [11] | % residual kinase activity [12] | % residual kinase activity [13] | % residual kinase activity [14] | % residual kinase activity [15] | Cell Proliferation IC50 (SK-N-FI)
CC1=C(C#N)C(c2ccc3c(c2)c(NC(=O)c2ccccc2C)nn3C)C(C#N)=C(C)N1 [BAY-974] | 0.021 µM | 7.69 |  |  |  |  |  |  |  |  |  |  |  |  |  |  |  |  | 
CCc1ccccc1C(=O)Nc1n[nH]c2c(C)c(F)c(C3C(C#N)=C(C)N(C)C(C)=C3C#N)cc12 [BAY-3827] |  |  | 101% | 61% | 112% | 11.4 µM | 100% | 87% | 108% | 32% | 86% | 95% | 94% | 81% | 91% | 112% | 78% | 100% | 21.2 µM
